Among the data in patent US9440982B2 (Eolas Therapeutics, Inc., priority 2012, dated 2016) are IC50 and inhibition values, retold here.

The target in one data set is T1, OX1 (Homo sapiens, UniProt O43613).
T1 construct: expressed in transfected cells; host or cells: CHO (CHO-OX1, kept under selection antibiotic)
T1 sequence (O43613 1-425): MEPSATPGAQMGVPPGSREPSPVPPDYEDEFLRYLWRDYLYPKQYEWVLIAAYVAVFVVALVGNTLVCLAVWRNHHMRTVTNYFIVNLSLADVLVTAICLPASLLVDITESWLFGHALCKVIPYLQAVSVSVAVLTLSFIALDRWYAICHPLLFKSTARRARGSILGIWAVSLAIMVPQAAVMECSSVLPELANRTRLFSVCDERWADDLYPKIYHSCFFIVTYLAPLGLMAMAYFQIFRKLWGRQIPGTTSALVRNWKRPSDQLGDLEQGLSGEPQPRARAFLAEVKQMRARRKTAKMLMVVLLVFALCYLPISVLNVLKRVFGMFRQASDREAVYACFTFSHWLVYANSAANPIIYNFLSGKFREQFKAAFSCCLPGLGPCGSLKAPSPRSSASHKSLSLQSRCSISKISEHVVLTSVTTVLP
The experiment in a line: Orexin receptor cell-based functional assay, [Ca2+]i by FLIPR, CHO-OX1 cells. The settings on record: CHO-OX1 cells, [Ca2+]i by FLIPR, antagonist dose-range 0.1 nM-10 μM, EC90 of OXA; read-out: OX1. A digest of the protocol: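 Antagonist mode FLIPR calcium read in CHO-OX1 and CHO-OX2 lines. Test compounds, dosed 0.1 nM-10 μM, preincubated 30 min after 37° C dye loading with 2.5 mM probenecid (calcium4 for 30 min or calcium6 for 2 h).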

In a further data set the target is T2, CYP3A4 (Homo sapiens, UniProt P08684).
T2 construct: pre-incubated with human liver microsomes and NADPH; from tissue; host or cells: human liver microsomes
T2 sequence (P08684 whole entry): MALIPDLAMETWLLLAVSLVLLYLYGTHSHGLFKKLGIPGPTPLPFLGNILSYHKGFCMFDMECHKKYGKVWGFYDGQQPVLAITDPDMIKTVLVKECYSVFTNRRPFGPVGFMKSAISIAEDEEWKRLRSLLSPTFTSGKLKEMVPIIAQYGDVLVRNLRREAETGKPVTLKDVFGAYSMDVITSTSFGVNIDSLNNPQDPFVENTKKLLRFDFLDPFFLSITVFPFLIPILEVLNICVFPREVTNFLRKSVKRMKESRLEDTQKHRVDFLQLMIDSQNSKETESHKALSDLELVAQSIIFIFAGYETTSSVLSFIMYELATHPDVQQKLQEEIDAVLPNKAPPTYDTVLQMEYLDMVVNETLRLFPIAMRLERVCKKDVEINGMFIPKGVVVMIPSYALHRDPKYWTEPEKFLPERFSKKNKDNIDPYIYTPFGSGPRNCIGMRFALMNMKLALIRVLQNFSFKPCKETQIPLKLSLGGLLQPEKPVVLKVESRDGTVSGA
The experiment in a line: Cytochrome P450 inhibition assay (midazolam hydroxylation). Format: in vitro ADME. As to conditions: human, human liver microsomes, probe midazolam (hydroxylation to 1′-hydroxymidazolam), 10 μM test compound, midazolam at approximately its Km. A digest of the protocol:
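Percent inhibition of midazolam 1′-hydroxylation by 10 μM compound was measured, midazolam dosed at about Km. Time-dependent inhibition was probed by a 30 min preincubation of compound with human liver microsomes and NADPH ahead of substrate, compared against samples without preincubation.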
A general note: Microsomes from liver hold many membrane-bound enzymes, among them those of drug oxidation.

As a reminder, the inhibition is the drop in the measured response relative to a control, in per cent. Read a high inhibition as strong suppression. As for `Cc1ccc(-c2cnn(C)c2)c(C(=O)N2CCC[C@@H](C)[C@H]2CNc2cccc(C)n2)c1` [Example A87, ((2S,3R)-3-Methyl-2-(((6-methylpyridin-2-yl)amino)methyl)piperidin-1-yl)(5-methyl-2-(1-methyl-1H-pyrazol-4-yl)phenyl)methanone], at OX1, the IC50 amounted to 220 nM. This compound displayed an inhibition at 10 µM on CYP3A4 of 73%.

`C[C@@H]1CCCN(C(=O)c2c(F)cccc2-n2nccn2)[C@@H]1CNc1ncc(Cl)cn1` [Example A260, ((2S,3R)-2-(((5-Chloropyrimidin-2-yl)amino)methyl)-3-methylpiperidin-1-yl)(2-fluoro-6-(2H-1,2,3-triazol-2-yl)phenyl)methanone]: the IC50 at OX1 was found to be 85 nM. The compound also displayed an inhibition at 10 µM at CYP3A4 of 53%.

In the case of `Cc1ccc(-c2ncccn2)c(C(=O)N2CCC[C@@H](C)[C@H]2CNc2ccc(C(F)(F)F)nn2)c1` [Example A137, ((2S,3R)-3-Methyl-2-(((6-(trifluoromethyl)pyridazin-3-yl)amino)methyl)piperidin-1-yl)(5-methyl-2-(pyrimidin-2-yl)phenyl)methanone], the IC50 at OX1 was 31 nM. The compound further came in with an inhibition at 10 µM on CYP3A4 of 47%.

In the case of `Cc1ccc(-n2cnc(C)n2)c(C(=O)N2CCC[C@@H](C)[C@H]2CNc2nc3cc(Cl)ccc3o2)c1` [Example A29, ((2S,3R)-2-(((5-Chlorobenzo[d]oxazol-2-yl)amino)methyl)-3-methylpiperidin-1-yl)(5-methyl-2-(3-methyl-1H-1,2,4-triazol-1-yl)phenyl)methanone], the IC50 on OX1 is 87 nM. The inhibition at 10 µM against CYP3A4 was determined as 91%.

In the case of `Cc1ccc(-n2nccn2)c(C(=O)N2CCC[C@@H](C)[C@H]2CNc2ccc(C3(C#N)CC3)cn2)c1` [Example A140, 1-(6-((((2S,3R)-3-Methyl-1-(5-methyl-2-(2H-1,2,3-triazol-2-yl)benzoyl)piperidin-2-yl)methyl)amino)pyridin-3-yl)cyclopropanecarbonitrile], the IC50 on OX1 worked out at 13 nM. Besides, 10 µM produced 64% inhibition at CYP3A4.

Regarding `C[C@@H]1CCCN(C(=O)c2cccc(F)c2-c2ncccn2)[C@@H]1CNc1ccc(C(F)(F)F)cn1` [Example A233, (3-Fluoro-2-(pyrimidin-2-yl)phenyl)((2S,3R)-3-methyl-2-(((5-(trifluoromethyl)pyridin-2-yl)amino)methyl)piperidin-1-yl)methanone], at OX1, the IC50 stood at 5 nM. For the same compound, at CYP3A4, at 10 µM the inhibition was 72%.

With `Cc1ccc(-n2nccn2)c(C(=O)N2CCC[C@@H](C)[C@H]2CNc2ncc(C#N)cc2F)c1` [Example A148, 5-Fluoro-6-((((2S,3R)-3-methyl-1-(5-methyl-2-(2H-1,2,3-triazol-2-yl)benzoyl)piperidin-2-yl)methyl)amino)nicotinonitrile], at OX1, the IC50 was found to be 83 nM. This compound also came in with an inhibition at 10 µM on CYP3A4 of 81%.

Consider `C[C@@H]1CCCN(C(=O)c2cccc(F)c2-n2nccn2)[C@@H]1CNc1ccc(Cl)cn1` [Example A254, ((2S,3R)-2-(((5-Chloropyridin-2-yl)amino)methyl)-3-methylpiperidin-1-yl)(3-fluoro-2-(2H-1,2,3-triazol-2-yl)phenyl)methanone], for which the IC50 on OX1 stood at 37 nM. On CYP3A4, this compound returned an inhibition at 10 µM of 63%.

As for `C[C@@H]1CCCN(C(=O)c2cc(F)ccc2-n2nccn2)[C@@H]1CNc1ncc(Cl)cn1` [Example A221, ((2S,3R)-2-(((5-Chloropyrimidin-2-yl)amino)methyl)-3-methylpiperidin-1-yl)(5-fluoro-2-(2H-1,2,3-triazol-2-yl)phenyl)methanone], the IC50 on OX1 came out at 32 nM. The compound further registered an inhibition at 10 µM at CYP3A4 of 53%.

With `Cc1ccc(-c2cnccn2)c(C(=O)N2CCC[C@@H](C)[C@H]2CNc2ccc(C(F)(F)F)cn2)c1` [Example A19, ((2S,3R)-3-Methyl-2-(((5-(trifluoromethyl)pyridin-2-yl)amino)methyl)piperidin-1-yl)(5-methyl-2-(pyrazin-2-yl)phenyl)methanone], at OX1, the IC50 amounted to 4 nM. This compound gave an inhibition at 10 µM against CYP3A4 of 96%.

As to `COc1cccc(NC[C@@H]2[C@H](C)CCCN2C(=O)c2cc(C)ccc2-n2nccn2)n1` [Example A80, ((2S,3R)-2-(((6-Methoxypyridin-2-yl)amino)methyl)-3-methylpiperidin-1-yl)(5-methyl-2-(2H-1,2,3-triazol-2-yl)phenyl)methanone], the IC50 at OX1 amounted to 1870 nM. Further, the inhibition at 10 µM against CYP3A4 is 28%.

Take `Cc1ccc(-n2nccn2)c(C(=O)N2CCC[C@@H](C)[C@H]2CNc2nc3cc(Cl)ccc3o2)c1` [Example A11, ((2S,3R)-2-(((5-Chlorobenzo[d]oxazol-2-yl)amino)methyl)-3-methylpiperidin-1-yl)(5-methyl-2-(2H-1,2,3-triazol-2-yl)phenyl)methanone]: the IC50 at OX1 was determined as 3 nM. This compound also yielded an inhibition at 10 µM against CYP3A4 of 78%.

Regarding `C[C@@H]1CCCN(C(=O)c2cc(F)c(F)cc2-n2nccn2)[C@@H]1CNc1ncc(C(F)(F)F)cn1` [Example A248, (4,5-Difluoro-2-(2H-1,2,3-triazol-2-yl)phenyl)((2S,3R)-3-methyl-2-(((5-(trifluoromethyl)pyrimidin-2-yl)amino)methyl)piperidin-1-yl)methanone], the IC50 at OX1 came to 20 nM. For the same compound, the inhibition at 10 µM on CYP3A4 is 67%.

Turning to `Cc1ccc(-n2nccn2)c(C(=O)N2CCC[C@@H](C)[C@H]2CNc2ncc3cc(Br)ccc3n2)c1` [Example A122, ((2S,3R)-2-(((6-Bromoquinazolin-2-yl)amino)methyl)-3-methylpiperidin-1-yl)(5-methyl-2-(2H-1,2,3-triazol-2-yl)phenyl)methanone], the IC50 at OX1 amounted to 96 nM. The compound further returned an inhibition at 10 µM against CYP3A4 of 72%.

As to `C[C@@H]1CCCN(C(=O)c2cccc(F)c2-n2nccn2)[C@@H]1CNc1ncc(Cl)cn1` [Example A255, ((2S,3R)-2-(((5-Chloropyrimidin-2-yl)amino)methyl)-3-methylpiperidin-1-yl)(3-fluoro-2-(2H-1,2,3-triazol-2-yl)phenyl)methanone], on OX1, the IC50 came out at 41 nM. Testing at 10 µM on CYP3A4 gave an inhibition of 41%.

With `C[C@@H]1CCCN(C(=O)c2cc(Cl)ccc2-c2ncccn2)[C@@H]1CNc1ccc(Cl)cn1` [Example A203, (5-Chloro-2-(pyrimidin-2-yl)phenyl)((2S,3R)-2-(((5-chloropyridin-2-yl)amino)methyl)-3-methylpiperidin-1-yl)methanone], the IC50 at OX1 is 21 nM. At CYP3A4, this compound displayed an inhibition at 10 µM of 70%.

Consider `Cc1cncc(-c2ccc(C)cc2C(=O)N2CCC[C@@H](C)[C@H]2CNc2ccc(C(F)(F)F)cn2)c1` [Example A5, ((2S,3R)-3-Methyl-2-(((5-(trifluoromethyl)pyridin-2-yl)amino)methyl)piperidin-1-yl)(5-methyl-2-(5-methylpyridin-3-yl)phenyl)methanone], for which, on OX1, the IC50 turned out to be 6 nM. The inhibition at 10 µM against CYP3A4 came to 98%.

Consider `C[C@@H]1CCCN(C(=O)c2ccccc2-c2ncccn2)[C@@H]1CNc1ccc(C(F)(F)F)cn1` [Example A316, ((2S,3R)-3-Methyl-2-(((5-(trifluoromethyl)pyridin-2-yl)amino)methyl)piperidin-1-yl)(2-(pyrimidin-2-yl)phenyl)methanone], for which the IC50 on OX1 amounted to 4 nM. The compound also showed an inhibition at 10 µM at CYP3A4 of 63%.

As to `C[C@@H]1CCCN(C(=O)c2cc(F)c(F)cc2-c2ncccn2)[C@@H]1CNc1ncc(Cl)cn1` [Example A244, ((2S,3R)-2-(((5-Chloropyrimidin-2-yl)amino)methyl)-3-methylpiperidin-1-yl) (4,5-difluoro-2-(pyrimidin-2-yl)phenyl)methanone], the IC50 on OX1 is 1300 nM. Also, the inhibition at 10 µM against CYP3A4 was determined as 70%.

With `C[C@@H]1CCCN(C(=O)c2cc(C#N)ccc2-n2nccn2)[C@@H]1CNc1ncc(C(F)(F)F)cn1` [Example A322, 3-((2S,3R)-3-Methyl-2-(((5-(trifluoromethyl)pyrimidin-2-yl)amino)methyl)piperidine-1-carbonyl)-4-(2H-1,2,3-triazol-2-yl)benzonitrile], the IC50 on OX1 came out at 11 nM. On CYP3A4, this compound had an inhibition at 10 µM of 40%.

As to `Cc1ccc(-n2nccn2)c(C(=O)N2CCC[C@@H](C)[C@H]2CNc2ncc(C(F)(F)F)cn2)c1` [Example A149, ((2S,3R)-3-Methyl-2-(((5-(trifluoromethyl)pyrimidin-2-yl)amino)methyl)piperidin-1-yl)(5-methyl-2-(2H-1,2,3-triazol-2-yl)phenyl)methanone], on OX1, the IC50 was found to be 3 nM. Also, the inhibition at 10 µM against CYP3A4 was determined as 60%.

For `Cc1ccc(-n2ccc(C)n2)c(C(=O)N2CCC[C@@H](C)[C@H]2CNc2ccc(C(F)(F)F)nn2)c1` [Example A130, ((2S,3R)-3-Methyl-2-(((6-(trifluoromethyl)pyridazin-3-yl)amino)methyl)piperidin-1-yl)(5-methyl-2-(3-methyl-1H-pyrazol-1-yl)phenyl)methanone], the IC50 at OX1 came to 21 nM. In addition, testing at 10 µM at CYP3A4 gave an inhibition of 86%.
